The subject of series [1] is Smad1. In words: Western blot of pSmad1 and tSmad1 in THP-1 cells. Type of series: cell-based, human. Particulars: THP-1 cells. On the procedure: Cultured cells were rinsed with cold PBS and lysed in Triton lysis buffer ([…] Tris-Cl, pH 7.5, 1% Triton X-100, 150 mM NaCl, 1 mM EDTA, 1 mM EGTA, 1 mM β-glycerophosphate, 1 mM Na3 VO4) or RIPA buffer with complete Protease Inhibitor Cocktail (Roche 11697498001). Lysates were mixed with Laemmli buffer with β-mercaptoethanol and boiled at 95° C. for 5 min to prepare SDS-PAGE samples. Western blot images were acquired with SuperSignal West pico ECL (ThermoFisher 34580) or Clarity Western ECL (Biorad 1705061) using LAS-3000 system (FujiFilm). Quantification of blots was done using ImageJ software.
(§1) THP-1 cells were treated with 0.3, 1.0 and 3.0 μg ml^−1 goat polyclonal anti-RSPO2 antibodies (R&D systems AF3266) or goat polyclonal GFP antibodies (ABIN 100085). After 48 hours, medium was replaced including fresh antibodies—and incubated another 24 hours. Western blot analysis and FACS analyses were performed as discussed above.

For series [2], the system named is THP-1 cells. As to the kind of experiment: Monocyte-macrophage differentiation of THP-1 cells (FACS / qRT-PCR of CD14, CD11B). Type of series: cell-based, human. On the procedure: (§2) Cultured cells were lysed in Macherey-Nagel RAI buffer containing 1% β-mercaptoethanol and total RNAs were isolated using NucleoSpin RNA isolation kit (Macherey-Nagel 740955). Reverse transcription and PCR amplification were performed. Primers used in this study are listed in Supplementary Table 1. Graphs show relative gene expressions to GAPDH. […] Statistical analyses were performed using PRISM7 software with unpaired t-test or one-way ANOVA test.
For analyzing macrophage differentiation of THP-1, cells were harvested, pelleted and resuspended in ice-cold blocking buffer (PBS supplemented with 1% BSA and 0.1% NaN3). Cells were treated with Fc Receptor Binding Inhibitor as recommended by the manufacturer (eBioscience 14916173) and stained directly with FITC/APC-conjugated antibodies diluted in blocking buffer or with non-conjugated primary antibodies followed by fluorochrome-labeled secondary antibodies. Isotype-matched antibodies were used as controls. Dead cells were excluded by counterstaining with propidium iodide. For analyzing apoptosis of THP-1, cells were fixed in 4% PFA, permeabilized by MeOH and blocked with PBS supplemented with 1% BSA and 0.1% Tween-20. Cells were stained with anti-active Caspase-3 antibody and fluorochrome-labeled secondary antibody. FACS Samples were analyzed with FACSCalibur or FACSCanto (BD Biosciences). 10,000 events per samples were acquired, and results were processed with Cell Quest or FACSDiva software (BD Biosciences). For BMP4 stimulation, cells were treated with 5 and 25 ng ml^−1 recombinant human BMP4 protein (R&D systems 314-BP). 100, 300 and 1000 nM LDN […] (Tocris 6053) were used for rescue assay. For the THP-1 cell number quantification and differentiation validation in vivo, bone marrow cells were harvested from tibias of NSG mice and red blood cells were removed by ACK Lysing Buffer (Gibco A1049201). Cells were stained and analyzed as above. Here, 50,000 PI-negative events per samples were acquired.
as §1
The sequences of shRSPO2 and shControl (Table 1) were synthesized, inserted into the transfer plasmid Tet-pLKO-puro (Addgene 21915) and validated by sequencing. Lentivirus was produced with the 3rd generation lentiviral system according to the protocol available at the Trono lab as described (www.epfl.ch/labs/tronolab/). THP-1 cells were infected with lentivirus with 8 μg ml^−1 Polybrene (Sigma TR-1003) and selected with 0.5 μg ml^−1 puromycin (Calbiochem 540411). Single cell clones were obtained by limiting dilutions. The shRNA expression of clones was validated by monitoring RSPO2 expression after doxycycline treatment (1.0 μg ml^−1) for 3 days.
Background: Real-time PCR tracks product formation cycle by cycle.

Series [3] has as its system ID1. As to the kind of experiment: qRT-PCR analysis of ID1 in THP-1 cells. The following applies: ATRA treatment. Type of series: cell-based, human. On the procedure:
as §2

Series [4] has as its system AML cells. As to the kind of experiment: Cytarabine (AraC) treatment of THP-1 TetOn-shRNA clones. Type of series: cell-based. The following applies: Dox and AraC treatment.
For series [5], the system named is ALK3. As to the kind of experiment: Western blot analysis of ALK3 in injected Xenopus embryos. The following applies: Xenopus embryos coinjected with alk3-EYFP mRNA. The class given is in vivo, Xenopus laevis. On the procedure:
Injected Xenopus embryos were harvested at stage 15 to 18, homogenized in NP-40 lysis buffer (2% NP-40, 20 mM Tris-HCl pH 7.5, 150 mM NaCl, 10 mM NaF, 10 mM Na3VO4, 10 mM sodium pyrophosphate, 5 mM EDTA, 1 mM EGTA, 1 mM PMSF, and complete Protease Inhibitor Cocktail with a volume of 20 μl per embryo. Lysates were cleared with CFC-113 (Honeywell 34874), followed by centrifugation (14,000 rpm, 10 min at 4° C.), boiling at 95° C. for 5 min with NuPAGE Sample Buffer. 0.5-1 embryos per lane were loaded for SDS-PAGE analysis.

The test system of series [6] is BMP signaling. As to the kind of experiment: BMP-reporter assay in Xenopus embryos. The class given is in vivo, Xenopus laevis. On the procedure:
In vitro fertilization, microinjection and culture of Xenopus embryos were performed as previously described (Gawantka et al. (1995), EMBO J 14, 6268-6279). X. laevis embryos were microinjected with reporter DNAs, in vitro transcribed mRNAs or antisense morpholino oligonucleotide (Mo) using Harvard Apparatus microinjection system. Mos for rspo2 (Kazanskaya et al (2004, loc. cit.), lrp6, chordin, bmp4, znrf3 and standard control were purchased from GeneTools. rspo2^ΔTSP Mo was designed based on rspo2 sequence. X. laevis 4-cell stage embryos were microinjected 5 nl per each blastomere equatorially and cultured until indicated stages. Equal amount of total mRNA or Mo were injected by adjustment with ppl or standard control Mo. Scoring of phenotypes was executed blind, and data are representative images from two independent experiments. Embryos in each image were selected using Magnetic Lasso tool or Magic Wand tool of Adobe Photoshop CS6 software, and pasted into the uniform background color for presentation. Statistical analyses show Chi-square tests.
In general terms: A reporter such as luciferase makes a cellular process visible.

The target in series [7] is T1, human ALK3-HA expressed in HEK293T cells (human, UniProt P36894 24-532).
T1 construct: whole, on cells; also called HA-tagged ALK3; BMPR1A
As to the kind of experiment: cell surface binding assay on HEK293T cells transfected with human ALK3-HA. On the procedure:
Cell surface binding assays were carried essentially out as previously described (Dosch et al. (1997), Development 124, 2325-2334). In brief, human ALK3-HA and Xenopus tropicalis LGR4 DNA were transfected in HEK293T cells, and incubated with 1.5 U ml⁻¹ conditioned media for 3 hours on ice. After several washes and crosslinking, cells were treated with 2 mM Levamisole for 20 min to inactivate endogenous AP activities and developed with BM-Purple (Sigma 11442074001). Cells were mounted with Fluoromount G. Images were obtained using LEICA DMIL microscope/Canon DS126311 camera.

The target in series [8] is T2, recombinant human RSPO2 (Peprotech 120-43) (human, UniProt Q6UXX9 22-243).
T2 construct: also called R-spondin 2
In words: in vitro binding assay: plate-coated recombinant RSPO2, ALK3^ECD-AP conditioned medium, bound AP chemiluminescence; Scatchard plot. On the procedure:
High binding 96-well plates (Greiner M5811) were coated with 2 μg ml⁻¹ of recombinant human RSPO1 (Peprotech 120-38), RSPO2 (Peprotech 120-43), RSPO3 (Peprotech 120-44) or FGF8b (Peprotech 100-25) recombinant protein reconstituted in bicarbonate coating buffer (50 mM NaHCO₃, pH 9.6) overnight at 4° C. Coated wells were washed three times with TBST (TBS, 0.1% Tween-20) and blocked with 5% BSA in TBST for 1 hour at room temperature. 1.5 U ml⁻¹ of ALK3^ECD-AP or control conditioned medium was incubated overnight at 4° C. Wells were washed six times with TBST and bound AP activity was measured by the chemiluminescent SEAP Reporter Gene Assay kit (Abcam ab 133077). For ZNRF3-ALK3 binding assay, plates were coated with recombinant human ZNRF3 Fc Chimera protein (R&D systems 7994-RF). ALK3^ECD-AP was preincubated with RSPO2-Flag, RSPO2^ΔTSP-Flag conditioned medium or recombinant RSPO protein prior to treatment. Control conditioned medium and vesicles were used as control. […] Statistical analyses show unpaired t-tests.

For `CC1=C(/C=C/C(C)=C/C=C/C(C)=C/C(=O)O)C(C)(C)CCC1` [ATRA, (2E,4E,6E,8E)-3,7-dimethyl-9-(2,6,6-trimethylcyclohexen-1-yl) nona-2,4,6,8-tetraenoic acid], the Smad1-phosphorylation entry in series [1] is “induced Smad1-phosphorylation”. For the same molecule, the “macrophage differentiation, combination with Dox-induced shRSPO2” value in series [2] (THP-1 TetOn-shRSPO2 clones, Dox+ATRA) is on record as “cooperated in inducing macrophage differentiation”. For the same molecule, in series [2] (THP-1 cells, ATRA treatment), the CD11B expression result is given as “induced”. For the same molecule, the ID1 expression result in series [3] is on record as “induced”.
For `Nc1ccn([C@@H]2O[C@H](CO)[C@@H](O)[C@@H]2O)c(=O)n1` [cytarabine], in series [4], the “sensitivity of AML cells to cytarabine upon loss of RSPO2” value is on record as “sensitize”.
With “rspo2 Mo: antisense morpholino against Xenopus rspo2, GCCGTCCAAATGCAGTTTCAAC (SEQ ID NO:9) (all phosphorodiamidate morpholino (PMO))”, the ALK3-EYFP protein levels result in series [5] is “increased ALK3-EYFP protein levels”. Besides, the “endogenous BMP signaling” value in series [6] (Xenopus neurulae, injection) was “increased endogenous BMP signaling”. In series [6] (coinjection with bmp4 Mo), the “BMP signaling reporter, coinjection of bmp4 Mo and rspo2 Mo” value is reported as “canceled each other out”.

B1: RSPO2^ΔTSP (human RSPO2 TSP1 domain deletion mutant) (ligand, not shown: small tags and cut ends)
chain: QGNRWRRSKRASYVSNPICKGCLSCSKDNGCSRCQQKLFFFLRREGMRQYGECLHSCPSGYYGHRAPDMNRCARCRIENCDSCFSKDFCTKCKVGFYLHRGRCFDECPDGFAPLEETMECVE
notes: also called RSPO2^ΔTSP-Flag
As for B1, the binding result in series [7] was “no binding (tested: 1.5 U ml^-1 conditioned media)”.

B2: ALK3^ECD-AP (extracellular domain of ALK3 fused to alkaline phosphatase, conditioned medium) (receptor, UniProt P36894 24-152, looked up)
chain: QNLDSMLHGTGMKSDSDQKKSENGVTLAPEDTLPFLKCYCSGHCPDDAINNTCITNGHCFAIIEEDDQGETTLASGCMKYEGSDFQCKDSPKAQLRRTIECCRTNLCNQYLQPTLPPVVIGPFFDGSIR
notes: extracellular domain; also called BMPR1A extracellular domain; not shown: alkaline phosphatase (AP) fusion partner from AP-pCS2+
Usually Kd stands for a measure of binding affinity in units of concentration. With B2, the dissociation constant Kd in series [8] was approximately 4.8 nM.

The record behind these values is patent US20250346890A1, “LEUKEMIA TREATMENT” (Deutsches Krebsforschungszentrum, priority 2019, published 2025).
